# Laboratory results as given in ChEMBL document CHEMBL1201862, “PubChem BioAssay data set” (2004).
# Active and inactive are the calls of the source.
# Legend:
# [1] = biological target: Eukaryotic translation initiation factor 4E (Mus musculus, UniProt P63073); assay: eIF4E–eIF4G protein interaction inhibitors, dose response, biochemical, TR-FRET (AID 855); format: functional;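 further: potency for disrupting eIF4E binding to eIF4GI seen as loss of FRET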
# [2] = biological target: T1, Coagulation factor XII (Homo sapiens, UniProt P00748); format: functional;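 further: activated factor XIIa alpha cleaving a fluorogenic AMC peptide substrate; inhibitor potency from loss of enzyme activity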
# T1 sequence (P00748 whole entry): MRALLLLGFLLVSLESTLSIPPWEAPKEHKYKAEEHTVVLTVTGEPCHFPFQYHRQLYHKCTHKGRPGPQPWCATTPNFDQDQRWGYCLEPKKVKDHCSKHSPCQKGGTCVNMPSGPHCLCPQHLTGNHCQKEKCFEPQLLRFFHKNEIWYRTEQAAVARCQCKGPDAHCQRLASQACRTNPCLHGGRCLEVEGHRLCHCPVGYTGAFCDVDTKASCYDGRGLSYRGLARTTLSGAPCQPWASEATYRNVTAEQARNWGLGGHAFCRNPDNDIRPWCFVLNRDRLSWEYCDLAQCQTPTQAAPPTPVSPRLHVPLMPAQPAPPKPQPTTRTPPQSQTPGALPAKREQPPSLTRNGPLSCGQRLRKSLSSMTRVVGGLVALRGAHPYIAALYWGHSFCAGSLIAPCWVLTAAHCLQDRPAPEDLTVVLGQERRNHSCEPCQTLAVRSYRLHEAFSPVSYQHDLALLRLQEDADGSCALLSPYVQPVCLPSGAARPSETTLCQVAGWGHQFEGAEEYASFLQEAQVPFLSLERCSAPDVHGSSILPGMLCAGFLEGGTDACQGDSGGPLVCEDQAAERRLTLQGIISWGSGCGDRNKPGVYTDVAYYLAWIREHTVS
# [3] = biological target: G-protein coupled receptor 55 (Homo sapiens, UniProt Q9Y2T6); assay: GPR55 agonists via beta-arrestin recruitment, primary screen, imaging, U2OS cells, beta-arrestin-GFP redistribution (AID 1961); format: functional
# [4] = biological target: Peroxisome proliferator-activated receptor gamma/Nuclear receptor coactivator 1 (Homo sapiens, UniProt P37231); assay: (§1) TR-FRET dose response biochemical High Throughput Screening assay for agonists of the steroid receptor coactivator 1 (SRC-1) recruitment by the peroxisome proliferator-activated receptor gamma (PPAR gamma): non-selective agonists. [Related pubchem assays (depositor defined):AID1300, AID1808, AID504735, AID631]; format: protein assay
# [5] = biological target: Peroxisome proliferator-activated receptor gamma/Nuclear receptor coactivator 3 (Homo sapiens, UniProt P37231); assay: as §1, with “3 (SRC-3)” for “1 (SRC-1)”, “assays: 1301 (Confirmation screen.), 1048 (Primary screen.)]” for “assays (depositor defined):AID1300, AID1808, AID504735, AID631]”; format: functional
# [6] = biological target: Peroxisome proliferator-activated receptor gamma/Nuclear receptor coactivator 2 (Homo sapiens, UniProt P37231); assay: TR-FRET dose response biochemical High Throughput Screening assay for agonists of the steroid receptor coactivator 2 (SRC-2) recruitment by the peroxisome proliferator-activated receptor gamma (PPAR gamma): non-selective agonists. [Related pubchem assays: 1297, 1032 ]; format: functional
# [7] = biological target: T2, RNA-binding protein pos-1 (Caenorhabditis elegans, UniProt G5EF15); assay: inhibitors of POS-1/mex-3 RNA binding, dose response, biochemical, fluorescence polarization (AID 1964);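 further: purified POS-1 fused to maltose binding protein made in E. coli; potency of compounds blocking POS-1 binding to fluorescent RNA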
# T2 sequence (G5EF15 whole entry): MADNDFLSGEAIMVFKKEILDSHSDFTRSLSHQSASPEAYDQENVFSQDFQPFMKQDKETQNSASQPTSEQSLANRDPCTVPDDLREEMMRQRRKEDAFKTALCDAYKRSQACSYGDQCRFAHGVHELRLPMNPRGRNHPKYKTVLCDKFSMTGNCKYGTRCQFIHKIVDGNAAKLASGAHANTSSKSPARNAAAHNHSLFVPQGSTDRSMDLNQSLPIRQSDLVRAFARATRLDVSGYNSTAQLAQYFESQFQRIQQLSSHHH
# [8] = biological target: T3, Zinc finger protein mex-5 (Caenorhabditis elegans, UniProt Q9XUB2); assay: MEX-5/TCR-2 RNA interaction inhibitors, dose response, biochemical, C. elegans, fluorescence polarization (AID 1960)
# T3 sequence (Q9XUB2 whole entry): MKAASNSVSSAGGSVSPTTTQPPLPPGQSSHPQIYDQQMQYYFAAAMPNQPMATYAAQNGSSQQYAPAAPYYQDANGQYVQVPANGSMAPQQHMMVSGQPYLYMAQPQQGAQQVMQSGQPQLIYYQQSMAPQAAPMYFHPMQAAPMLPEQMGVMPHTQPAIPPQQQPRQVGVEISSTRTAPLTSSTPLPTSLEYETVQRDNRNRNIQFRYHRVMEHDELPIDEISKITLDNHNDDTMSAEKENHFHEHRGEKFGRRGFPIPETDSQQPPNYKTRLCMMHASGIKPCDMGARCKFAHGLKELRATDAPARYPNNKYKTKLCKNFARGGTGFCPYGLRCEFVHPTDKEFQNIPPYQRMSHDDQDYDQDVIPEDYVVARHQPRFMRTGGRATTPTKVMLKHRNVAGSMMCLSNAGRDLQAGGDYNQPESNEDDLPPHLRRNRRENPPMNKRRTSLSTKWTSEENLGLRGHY
# [9] = system: HeLa; assay: HeLa cell cytotoxicity, dose response, cytotoxicity control, 24 h, cherry-picked samples (AID 504726); format: functional, cell-based; details: Homo sapiens;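 further: potency for cytotoxicity as loss of luminescence signal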
# [10] = biological target: T4, Voltage-gated N-type calcium channel alpha-1B subunit/Amyloid beta A4 precursor protein-binding family A member 1 (Homo sapiens, UniProt Q00975+Q02410); format: protein assay
# [11] = biological target: T4, Voltage-gated N-type calcium channel alpha-1B subunit/Amyloid beta A4 precursor protein-binding family A member 1; format: protein assay; remark: listed apart in the source
# [12] = biological target: T5, Aminopeptidase N (Plasmodium falciparum FcB1/Columbia, UniProt O96935); assay: P. falciparum M1AAP inhibitors, biochemical, fluorogenic H-Leu-NHMec substrate, 1536-well (AID 1445); design: species or system Plasmodium falciparum 3D7, 3D7
# T5 sequence (O96935 whole entry): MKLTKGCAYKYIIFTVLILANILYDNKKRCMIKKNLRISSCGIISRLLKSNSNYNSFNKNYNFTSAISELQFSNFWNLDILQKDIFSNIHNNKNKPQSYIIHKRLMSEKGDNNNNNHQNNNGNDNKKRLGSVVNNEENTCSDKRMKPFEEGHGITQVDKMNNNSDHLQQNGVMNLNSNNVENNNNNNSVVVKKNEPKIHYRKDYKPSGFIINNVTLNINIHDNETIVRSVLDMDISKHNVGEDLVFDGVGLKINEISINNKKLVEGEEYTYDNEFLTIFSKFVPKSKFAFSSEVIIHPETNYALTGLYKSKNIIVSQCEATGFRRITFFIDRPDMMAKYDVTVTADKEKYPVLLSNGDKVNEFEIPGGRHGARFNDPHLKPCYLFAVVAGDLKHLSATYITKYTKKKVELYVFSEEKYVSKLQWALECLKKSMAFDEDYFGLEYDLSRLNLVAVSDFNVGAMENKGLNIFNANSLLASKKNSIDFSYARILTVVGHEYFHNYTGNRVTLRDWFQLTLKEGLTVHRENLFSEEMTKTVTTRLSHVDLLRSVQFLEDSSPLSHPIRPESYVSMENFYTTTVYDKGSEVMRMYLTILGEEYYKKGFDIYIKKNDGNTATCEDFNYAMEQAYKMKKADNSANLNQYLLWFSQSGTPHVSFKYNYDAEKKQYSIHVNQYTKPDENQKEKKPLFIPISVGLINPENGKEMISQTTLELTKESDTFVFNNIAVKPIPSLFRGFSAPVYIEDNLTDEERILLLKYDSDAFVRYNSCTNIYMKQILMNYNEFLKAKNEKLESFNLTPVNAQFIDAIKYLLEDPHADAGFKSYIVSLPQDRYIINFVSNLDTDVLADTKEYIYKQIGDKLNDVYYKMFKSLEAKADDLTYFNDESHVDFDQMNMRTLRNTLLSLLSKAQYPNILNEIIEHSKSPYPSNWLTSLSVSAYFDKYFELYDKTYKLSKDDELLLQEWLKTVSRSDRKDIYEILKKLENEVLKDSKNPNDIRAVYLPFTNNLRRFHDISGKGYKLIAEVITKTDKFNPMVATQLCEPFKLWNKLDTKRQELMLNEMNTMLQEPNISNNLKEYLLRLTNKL
# [13] = inhibitors of firefly luciferase expression or activity, dose response, H4 neuroglioma cells, luminescence (AID 1990); format: functional, cell-based
# [14] = Luminescence Cell-Based Dose Response HTS to Identify Inhibitors of 5'UTR Stem-Loop Driven Prion Protein mRNA Translation in H4 Neuroglioblastoma Cells. [Related pubchem assays: 1827 (Project Summary), 1813 (Primary HTS)]; format: functional
# [15] = inhibitors of SNCA 5'UTR-driven reporter translation, confirmation, H4 neuroglioma cells, luminescence (AID 1988); format: functional, cell-based
# [16] = cytotoxicity in HEK-293T cells, dose response, cytotoxicity control for BCR NF-kB inhibitor project, luminescence, B-cell screen hits (AID 489021); format: functional, cell-based;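 further: HEK-293T cells carrying an NF-kB luciferase reporter; cells exposed to compound for about 14 hours before viability readout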
# [17] = system: H9c2; assay: cells; format: functional, cell-based; details: Rattus norvegicus, H9c2, Myocardium;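 further: confirmatory concentration-response retest of ultra-high-throughput screening hits for modulation of myocardial damage; cell death induced by hydrogen peroxide oxidative stress; compound pretreatment for 60 min then peroxide exposure for 2 h; potency is for protecting the cells against peroxide damage rather than for killing them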
# [18] = system: HEK293; assay: cells; details: Homo sapiens
# [19] = system: HEK293; assay: cells; details: Homo sapiens; remark: listed apart in the source
# Sequence of Eukaryotic translation initiation factor 4E (P63073 whole entry): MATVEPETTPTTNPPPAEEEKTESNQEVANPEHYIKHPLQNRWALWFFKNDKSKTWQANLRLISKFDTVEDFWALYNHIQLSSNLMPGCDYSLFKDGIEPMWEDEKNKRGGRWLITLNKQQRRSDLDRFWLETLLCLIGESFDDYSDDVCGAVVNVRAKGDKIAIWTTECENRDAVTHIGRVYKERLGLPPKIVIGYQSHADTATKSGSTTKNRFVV
# T4 sequence (Q00975 whole entry): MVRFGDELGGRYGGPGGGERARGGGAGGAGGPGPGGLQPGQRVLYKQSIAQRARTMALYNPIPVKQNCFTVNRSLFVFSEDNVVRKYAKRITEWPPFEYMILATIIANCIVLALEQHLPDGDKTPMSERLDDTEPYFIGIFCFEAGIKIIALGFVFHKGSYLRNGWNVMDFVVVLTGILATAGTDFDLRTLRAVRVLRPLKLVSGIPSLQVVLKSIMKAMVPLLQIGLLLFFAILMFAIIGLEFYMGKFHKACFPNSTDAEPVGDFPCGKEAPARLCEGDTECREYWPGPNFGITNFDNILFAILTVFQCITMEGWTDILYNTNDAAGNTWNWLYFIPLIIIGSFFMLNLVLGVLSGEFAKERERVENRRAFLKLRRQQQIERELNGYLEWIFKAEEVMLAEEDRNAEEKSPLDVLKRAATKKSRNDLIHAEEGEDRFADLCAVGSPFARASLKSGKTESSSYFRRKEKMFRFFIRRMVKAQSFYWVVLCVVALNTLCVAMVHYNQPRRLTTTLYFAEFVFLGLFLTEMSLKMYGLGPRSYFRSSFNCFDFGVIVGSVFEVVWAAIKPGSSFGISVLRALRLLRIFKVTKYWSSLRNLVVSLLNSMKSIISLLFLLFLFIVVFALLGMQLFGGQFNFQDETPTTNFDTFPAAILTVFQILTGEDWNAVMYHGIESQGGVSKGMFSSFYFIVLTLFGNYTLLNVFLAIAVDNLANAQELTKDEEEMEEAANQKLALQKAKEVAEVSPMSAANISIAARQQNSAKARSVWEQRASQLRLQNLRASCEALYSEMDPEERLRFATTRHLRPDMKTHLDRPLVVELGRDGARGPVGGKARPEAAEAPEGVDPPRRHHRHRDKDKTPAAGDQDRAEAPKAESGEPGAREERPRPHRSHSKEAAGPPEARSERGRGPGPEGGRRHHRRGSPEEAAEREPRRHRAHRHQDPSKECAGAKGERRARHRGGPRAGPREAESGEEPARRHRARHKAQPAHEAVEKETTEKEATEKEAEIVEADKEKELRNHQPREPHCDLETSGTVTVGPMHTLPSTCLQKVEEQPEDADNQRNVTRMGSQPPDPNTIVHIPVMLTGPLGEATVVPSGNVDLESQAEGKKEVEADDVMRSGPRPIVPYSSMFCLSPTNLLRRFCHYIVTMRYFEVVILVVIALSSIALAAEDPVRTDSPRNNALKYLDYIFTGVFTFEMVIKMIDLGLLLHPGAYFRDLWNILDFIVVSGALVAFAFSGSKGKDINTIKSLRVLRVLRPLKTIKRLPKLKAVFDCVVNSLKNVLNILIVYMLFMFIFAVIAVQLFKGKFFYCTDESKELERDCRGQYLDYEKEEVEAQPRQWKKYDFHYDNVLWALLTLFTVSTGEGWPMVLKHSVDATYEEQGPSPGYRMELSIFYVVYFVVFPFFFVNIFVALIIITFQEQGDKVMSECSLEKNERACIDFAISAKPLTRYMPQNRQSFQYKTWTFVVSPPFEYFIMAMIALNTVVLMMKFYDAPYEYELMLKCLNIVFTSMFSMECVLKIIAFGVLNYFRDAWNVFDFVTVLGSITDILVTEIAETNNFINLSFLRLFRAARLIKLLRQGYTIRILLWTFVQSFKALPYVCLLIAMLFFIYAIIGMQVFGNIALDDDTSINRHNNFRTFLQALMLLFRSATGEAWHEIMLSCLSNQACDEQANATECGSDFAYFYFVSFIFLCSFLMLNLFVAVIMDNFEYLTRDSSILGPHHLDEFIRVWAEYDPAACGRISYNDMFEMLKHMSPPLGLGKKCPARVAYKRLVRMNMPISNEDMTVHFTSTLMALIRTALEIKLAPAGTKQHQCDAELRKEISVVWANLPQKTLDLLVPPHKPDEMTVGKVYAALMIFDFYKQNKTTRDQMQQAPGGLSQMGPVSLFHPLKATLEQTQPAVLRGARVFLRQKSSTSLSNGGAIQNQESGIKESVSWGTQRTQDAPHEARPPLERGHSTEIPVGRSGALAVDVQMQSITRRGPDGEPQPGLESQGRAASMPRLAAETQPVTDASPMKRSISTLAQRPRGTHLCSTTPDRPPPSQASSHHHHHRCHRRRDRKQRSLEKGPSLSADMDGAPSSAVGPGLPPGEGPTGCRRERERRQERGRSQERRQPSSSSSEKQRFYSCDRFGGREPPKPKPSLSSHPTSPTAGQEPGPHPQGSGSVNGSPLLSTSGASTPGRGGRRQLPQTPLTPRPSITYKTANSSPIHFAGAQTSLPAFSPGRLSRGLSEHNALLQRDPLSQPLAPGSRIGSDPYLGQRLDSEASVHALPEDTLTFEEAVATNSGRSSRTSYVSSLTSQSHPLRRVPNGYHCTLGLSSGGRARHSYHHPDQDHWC
# T4 sequence (Q02410 whole entry): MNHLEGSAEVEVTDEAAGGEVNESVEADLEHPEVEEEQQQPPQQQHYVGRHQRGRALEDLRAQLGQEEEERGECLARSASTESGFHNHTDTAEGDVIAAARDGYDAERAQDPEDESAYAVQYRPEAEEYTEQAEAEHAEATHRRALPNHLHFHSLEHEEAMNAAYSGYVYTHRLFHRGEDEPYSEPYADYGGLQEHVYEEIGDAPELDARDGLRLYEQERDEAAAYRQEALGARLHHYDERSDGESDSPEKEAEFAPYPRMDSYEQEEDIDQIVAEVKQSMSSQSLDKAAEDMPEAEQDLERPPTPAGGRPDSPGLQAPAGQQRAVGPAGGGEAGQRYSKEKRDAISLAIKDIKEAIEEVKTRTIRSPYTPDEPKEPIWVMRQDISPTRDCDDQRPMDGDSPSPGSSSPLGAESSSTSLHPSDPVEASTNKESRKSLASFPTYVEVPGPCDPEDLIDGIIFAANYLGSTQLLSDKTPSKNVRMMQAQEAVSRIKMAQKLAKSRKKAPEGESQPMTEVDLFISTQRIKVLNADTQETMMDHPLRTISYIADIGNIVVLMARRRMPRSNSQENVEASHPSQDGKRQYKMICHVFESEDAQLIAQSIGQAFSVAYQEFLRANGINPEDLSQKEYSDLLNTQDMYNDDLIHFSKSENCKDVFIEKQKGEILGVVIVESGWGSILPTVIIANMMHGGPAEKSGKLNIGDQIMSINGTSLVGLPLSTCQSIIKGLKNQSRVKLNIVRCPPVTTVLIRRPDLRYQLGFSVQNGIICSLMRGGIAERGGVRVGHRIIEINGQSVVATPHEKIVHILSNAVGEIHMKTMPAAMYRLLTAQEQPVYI
# Sequence of G-protein coupled receptor 55 (Q9Y2T6 whole entry): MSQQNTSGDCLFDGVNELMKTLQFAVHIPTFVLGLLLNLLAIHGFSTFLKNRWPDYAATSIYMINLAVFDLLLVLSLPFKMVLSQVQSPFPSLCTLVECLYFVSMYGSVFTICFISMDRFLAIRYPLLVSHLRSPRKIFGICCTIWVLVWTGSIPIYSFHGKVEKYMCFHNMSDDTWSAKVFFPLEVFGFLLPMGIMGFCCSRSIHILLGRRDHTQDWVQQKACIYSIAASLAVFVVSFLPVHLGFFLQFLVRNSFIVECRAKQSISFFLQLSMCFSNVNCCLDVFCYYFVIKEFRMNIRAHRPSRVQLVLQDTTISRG
compound,measurement,setting,value
COc1ccc(CCNC(=O)Cn2cnc3c(cnn3-c3ccccc3Cl)c2=O)cc1OC,IC50,[1],> 64 µM (inactive)
CCOC(=O)c1cn(Cc2ccccc2)nn1,IC50,[2],> 50 µM (inactive)
O=C(O/N=C(\c1ccccc1)c1ccccn1)c1cccc2ccccc12,EC50,[3],> 32 µM (inactive)
COC(=O)c1ccc(C2C(C(=O)c3cc4ccccc4o3)=C(O)C(=O)N2CCCN(C)C)cc1 (stereo unspecified),EC50,[4],> 79.4 µM (inactive)
same,EC50,[5],> 79.4 µM (not active)
same,EC50,[6],51.9 µM (not active)
CCN1/C(=C2/SC(=S)N(NC(C)=O)C2=O)Sc2ccc(OC)cc21,EC50,[7],> 300 µM (not active)
same,EC50,[8],> 300 µM (not active)
same,AC50,[9],122 µM (active)
COc1ccc(C(=O)NC(=S)Nc2ccc(NC(=O)c3ccco3)cc2)cc1[N+](=O)[O-],IC50,[10],11.9 µM (active)
same,IC50,[11],> 50 µM (inactive)
O=c1oc2c(CN3CCCCC3)c(O)ccc2c2c1CCCC2,IC50,[12],65.3 µM (active)
O=C(C1=C(O)C(=O)N(CCCN2CCOCC2)C1c1ccncc1)c1cc2ccccc2o1 (stereo unspecified),EC50,[4],> 79.4 µM (inactive)
same,EC50,[5],> 79.4 µM (not active)
same,EC50,[6],> 79.4 µM (not active)
COc1cc(OC)cc(-c2cc3nc(C)c(CCC(=O)Nc4nc(C)cs4)c(C)n3n2)c1,EC50,[13],16.9 µM (active)
same,EC50,[14],13.2 µM (active)
same,EC50,[15],24.2 µM (active)
same,IC50,[16],> 80 µM (inactive)
same,IC50,[17],> 79 µM (inactive)
COC(=O)c1ccc(OCC(O)CN2CCC(C)CC2)cc1 (stereo unspecified),AC50,[9],124 µM (active)
O=C(CC1CCCCC1)NCC1CCCO1 (stereo unspecified),IC50,[1],> 64 µM (inactive)
Fc1ccc(-c2csc3ncnc(Nc4ccc(N5CCOCC5)cc4)c23)cc1,EC50,[18],> 59.6 µM (inactive)
same,EC50,[19],> 59.6 µM (inactive)
CCc1cc2c(=O)c(Oc3ccccc3F)c(C)oc2c(CN(C)C)c1O,IC50,[10],1.5 µM (active)
same,IC50,[11],> 50 µM (inactive)
CCc1cccc(OCC(=O)Nc2cc(S(=O)(=O)N3CCOCC3)ccc2N2CCCC2)c1,EC50,[3],4.03 µM (active)
CCOC(=O)C1=NN(C(=O)c2cccc(Br)c2)C(O)(C(C)(C)C)C1 (stereo unspecified),IC50,[12],44 µM (active)
Cc1ccccc1CSc1nncn1N,IC50,[1],> 64 µM (inactive)
CN1CCN(c2ncnc(Cl)c2N)CC1,IC50,[2],> 50 µM (inactive)
O=C(/C=C/c1cccs1)NC(=S)Nc1ccc(C(=O)O)cc1,IC50,[12],28.8 µM (active)
